Legend:
Trypanosoma cruzi [1] = experiment: GSK_TCAKS: pIC50 Trypanosoma cruzi viability assay using beta-GAL activity. This assay was run at single shot at 5uM compound concentration per well. The biological reagents consisted of NIH-3T3 host cells and trypomastigotes parasitic cells; both cell types were set to a 3.3 * 10^5 cells/mL dilution in assay DMEM by means of a CASY cell counter device using a 60um capillary. 6 uL of the mixture were dispensed per well (about 1 * 10^3 host-cells and 1 * 10^3 parasites) with a Multidrop Combi dispenser. […] In all wells, the percentage of DMSO never exceeded 0.5%. Plates incubated for four days at 37C, 5% CO2. The substrate used for the assay fluorescence intensity (FLINT) readout was resorufin-beta-D-galactopiranoside (Sigma-Aldrich) at 5uM per well. It was diluted in PBS supplemented with the soft detergent Igepal (Fluka).; assay type: functional, organism-based, Mus musculus; settings: Tulahuen, NIH3T3
Trypanosoma cruzi [2] = experiment: (§1) GSK_TCAKS: pIC50 H2C9 Imaging: H9c2 Host Cardiomyocytes. […] Cells were then washed once with PBS before infection. T. cruzi trypomastigotes, collected at days 5 to 8 after infection from LLC-MK2 parasite infected cultures, were allowed to swim out for 4h at 37C from a centrifuged pellet (2,500 rpm/10 min/room temperature). Trypomastigotes were then collected and counted in a CASY Cell Counter. Trypomastigotes, in supplemented DMEM, were added to H9c2 cultures in a multiplicity of infection of 1 and incubated for 18 h. Cells were washed once with PBS before incubation of the infected H9c2 monolayer with trypsin (Life-Technologies) to detach cells from the flask. Cells were counted in a CASY Cell Counter using a 150 um capillary and their density set at 5 * 10^4 cells per mL in supplemented assay DMEM. Infected H9c2 were dispensed into 384-well poly-lysine coated assay plates at 50uL per well using a Multidrop Combi dispenser. After seeding them, the plates were incubated at 37C, 5% CO2 for 72h. Cultures were then fixed and stained by addition of 50 uL of a solution containing 8% formaldehyde and 4 uM DRAQ5 DNA dye (BioStatus, UK) per well. […] Five images were collected per well for reliable statistical analysis. Automated image analysis was performed with a script developed on Acapella High Content Imaging and Analysis Software (PerkinElmer). Output: Number of H9c2 Host Cardiomyocytes nuclei to determine drug-related cytotoxicity.; assay type: functional, organism-based, Rattus norvegicus; settings: H9c2, 4 h
[3] = system: Trypanosoma brucei brucei; experiment: GSK_TCAKS: pIC50 Trypanosoma brucei viability assay using fluorescence intensity. Assay plates (1536-well) were prepared by dispensing 25nL of compound solution per well using an Echo acoustic dispenser (Labcyte).; assay type: functional, organism-based; settings: Lister 427, 2 h
Leishmania donovani [4] = experiment: (§2) GSK_TCAKS: pIC50 Leishmania donovani Imaging: THP-1 Host Macrophages. Assay plates (384-well) were prepared by adding 250nL of compound to each well. For single shot assay, the final compound concentration was 5 uM. […] Automated image analysis was performed with a script developed on Acapella High Content Imaging and Analysis Software (PerkinElmer). Output: THP-1 cell count were reported for each well.; assay type: functional, organism-based, Homo sapiens
Leishmania donovani [5] = experiment: as §2, with “Infected” for “THP-1 Host”, “Percent of infected macrophage cells” for “THP-1 cell count”; assay type: functional, organism-based, Homo sapiens; settings: THP-1
NIH3T3 = experiment: GSK_TCAKS: pIC50 NIH 3T3 cell line viability assay using luminiscence. Tissue culture surface treated assay plates (1536-well) were used. […] The 100% cells survival control was determined exposing the host-cells to a 0.5% DMSO concentration, whereas the 100% toxicity control was achieved by seeding the cells in presence of Amphotericin B at 50uM. Plates were incubated for four days at 37C, 5% CO2. The assay readout was developed by addition of 5uL of CellTiter-Glo Reagent following the manufacturer's instructions. Luminiscence was measured using a ViewLux.; assay type: functional, cell-based; settings: Mus musculus, NIH3T3, 96 h
Leishmania donovani [6] = experiment: as §2, with “Amastigotes/Macrophages.” for “THP-1 Host Macrophages.”, “Average number of amastigotes per macrophage” for “THP-1”, “cell” for “cell count”; assay type: functional, organism-based, Homo sapiens; settings: THP-1
Leishmania donovani [7] = experiment: GSK_TCAKS: pIC50 Leishmania donovani viability assay using fluorescence intensity. Assay plates (1536-well) were prepared by adding 30nL per well of compound. For single shot assay, the final compound concentration was 5uM. […] Briefly, eGFP LdBOB axenic amastigotes were harvested, fixed and counted in a CASY cell counter (Roche-Applied Science). A final concentration of 1.5 * 10^5 cells per well were prepared in amastigote media containing 500 U/mL penicillin/streptomycin (Invitrogen) and 6uL was dispensed to each experimental well using a Multidrop Combi dispenser (Thermo Scientific). 6uL of assay media was dispensed to control columns used as reference for 100% compound response. Following incubation for 72 h at 37C, 5% CO2, 2 uL of resazurin was added to each well at a final concentration of 0.5 mM in phosphate buffered saline (PBS) with IGEPAL (Sigma-Aldrich), 0.05% (v/v).; assay type: functional, organism-based
[8] = biological target: Sterol 14-alpha demethylase (Trypanosoma cruzi (strain CL Brener), UniProt Q7Z1V1); experiment: GSK_TCAKS: pIC50 CYP51 from Trypanosoma cruzi.; assay type: functional
Chain of Sterol 14-alpha demethylase (Q7Z1V1 whole entry): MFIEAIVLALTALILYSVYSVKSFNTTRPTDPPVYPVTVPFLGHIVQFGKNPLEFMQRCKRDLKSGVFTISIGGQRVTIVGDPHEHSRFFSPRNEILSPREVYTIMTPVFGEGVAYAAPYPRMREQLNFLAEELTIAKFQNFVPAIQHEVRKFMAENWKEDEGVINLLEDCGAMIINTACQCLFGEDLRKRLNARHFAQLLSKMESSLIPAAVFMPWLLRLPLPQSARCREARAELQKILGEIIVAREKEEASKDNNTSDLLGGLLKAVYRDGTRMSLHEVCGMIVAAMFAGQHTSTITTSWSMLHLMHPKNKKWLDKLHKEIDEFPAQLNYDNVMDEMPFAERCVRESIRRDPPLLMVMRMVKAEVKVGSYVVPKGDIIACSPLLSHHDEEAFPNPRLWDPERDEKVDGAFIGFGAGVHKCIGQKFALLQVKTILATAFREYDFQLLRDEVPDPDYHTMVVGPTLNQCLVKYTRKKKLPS

[9] = GSK_TCAKS: pIC50 HepG2 human cell line viability assay using luminiscence. […] Seeding density was checked to ensure that new mono-layers were not more than 50% confluent at the time of harvesting. Cell suspension was added to 500 mL of the same medium at a final density of 1.2 * 10^5 cells/mL. This cell suspension was dispensed (25 uL, 3000 cells per well) into 384-well clear-bottom plates using a Multidrop Combi dispenser. Prior to addition of the cell suspension, the screening compounds (250 nL) were pre-dispensed into the plates with an Echo liquid handler. Plates were incubated for 48 h at 37C, 5% CO2. After incubation, plates equilibrated at room temperature for 30 min before proceeding to develop the luminescent signal. The signal developer, CellTiter-Glo Reagent, was allowed to equilibrate at room temperature for 30 min and added to the plates (25uL per well) using a Multidrop Combi dispenser. Plates were left for 10 min at room temperature for stabilization and then read using a ViewLux.; assay type: toxicity, cell-based
Trypanosoma cruzi [10] = experiment: as §1, with “Trypanosoma cruzi” for “H2C9”, “Infected Cells.” for “H9c2 Host Cardiomyocytes.”, “percentage” for “Number”, “infected cells per well as a second infection marker.” for “H9c2 Host Cardiomyocytes nuclei to determine drug-related cytotoxicity.”; assay type: functional, organism-based, Rattus norvegicus; settings: H9c2, 4 h
[11] = system: Trypanosoma brucei brucei; experiment: GSK_TCAKS: pIC50 Trypanosoma brucei viability assay using luminiscence. Assay plates (1536-well) were prepared. T. brucei cultures were harvested and counted in a CASY cell counter. A parasite suspension was prepared at a final concentration of 5 * 10^4 cells/mL in complete HMI9 medium and 6uL was dispensed to all wells containing compounds using a Multidrop Combi dispenser. 6uL of HMI9 media with 0.4% DMSO were dispensed to control columns. Plates were incubated for 24 h at 37C, 5% CO2 then tempered for 10 min at room temperature. ATP content was quantified by adding 4 uL of CellTiter-Glo Reagent (Promega) according to the manufacturer's instructions. Luminescence was measured using a ViewLux.; assay type: functional, organism-based; settings: Lister 427, CASY
Trypanosoma cruzi [12] = experiment: as §1, with “Trypanosoma cruzi” for “H2C9”, “Amastigotes/Cell.” for “H9c2 Host Cardiomyocytes.”, “number” for “Number”, “amastigotes per cell as infection level measurement.” for “H9c2 Host Cardiomyocytes nuclei to determine drug-related cytotoxicity.”; assay type: functional, organism-based, Rattus norvegicus; settings: H9c2, 4 h

| Compound | IC50 (Trypanosoma cruzi [1]) | IC50 (Trypanosoma cruzi [2]) | IC50 [3] | IC50 (Leishmania donovani [4]) | IC50 (Leishmania donovani [5]) | IC50 (NIH3T3) | IC50 (Leishmania donovani [6]) | IC50 (Leishmania donovani [7]) | IC50 [8] | IC50 at 48 h [9] | IC50 (Trypanosoma cruzi [10]) | IC50 [11] | IC50 (Trypanosoma cruzi [12]) |
| --- | --- | --- | --- | --- | --- | --- | --- | --- | --- | --- | --- | --- | --- |
| CCN(CC)S(=O)(=O)c1ccc(Cn2nc(C(=O)Nc3ccncn3)c3ccccc32)cc1 | 0.316 µM | 25.1 µM | 31.6 µM | > 50.1 µM | > 50.1 µM | 39.8 µM | > 50.1 µM | > 50.1 µM | 0.158 µM | > 100 µM | 0.398 µM | > 39.8 µM | 0.398 µM |
| Cc1cccnc1CN1CCN(CCCOc2ccc(-c3ccc(C(N)=O)cc3)cc2)CC1 | 0.631 µM | > 50.1 µM | 10 µM | 12.6 µM | 31.6 µM | 6.31 µM | 10 µM | > 50.1 µM | > 100 µM | > 100 µM | 20 µM | > 39.8 µM | 0.398 µM |
| CC(C(=O)Nc1ccccc1F)N(C)CC(=O)Nc1cccc2ccccc12 (centres undefined) | 0.398 µM | > 50.1 µM | 25.1 µM | > 50.1 µM | > 50.1 µM | 12.6 µM | > 50.1 µM | 50.1 µM | 15.8 µM | > 100 µM | 0.501 µM | > 39.8 µM | 0.316 µM |
| COc1ccc(C(C)N(C)c2ncc3c(N)nc(N)nc3n2)cc1F (centres undefined) | 0.0794 µM | 25.1 µM | 12.6 µM | > 50.1 µM | 15.8 µM | 39.8 µM | 12.6 µM | 3.98 µM | > 100 µM | > 100 µM | 0.2 µM | 5.01 µM | 0.0631 µM |
| O=c1ccc2ccc(F)c3c2n1C[C@H]3CN1CCC(NCc2cc3ccccc3o2)CC1 | 0.398 µM | 31.6 µM | 0.631 µM | 31.6 µM | 20 µM | 20 µM | 12.6 µM | 15.8 µM | 31.6 µM | 39.8 µM | 0.2 µM | 2 µM | 0.126 µM |
| CS(=O)(=O)N[C@H]1CC[C@@H](Oc2cc3cnccc3cc2-c2ccsc2)CC1 | 0.126 µM | > 50.1 µM | 15.8 µM | 15.8 µM | 50.1 µM | 15.8 µM | 20 µM | 31.6 µM | 0.0251 µM | 63.1 µM | 0.158 µM | > 39.8 µM | 0.1 µM |
| Cc1c(C(=O)NCCCCn2ccnc2)oc2c(C)cccc12 | 0.224 µM | > 50.1 µM | 20 µM | > 50.1 µM | > 50.1 µM | 31.6 µM | > 50.1 µM | > 50.1 µM | 0.1 µM | 79.4 µM | 0.501 µM | > 39.8 µM | 0.501 µM |
| Cc1ccc2ccc(C(Nc3ccccn3)c3cccnc3)c(O)c2n1 (centres undefined) | 0.501 µM | 31.6 µM | 5.01 µM | > 50.1 µM | 12.6 µM | 10 µM | 7.94 µM | 0.398 µM | 0.0501 µM | 20 µM | 0.2 µM | 3.98 µM | 0.2 µM |

Source: ChEMBL document CHEMBL3430912, “GSK Tres Cantos Anti-Kinetoplastid Screening (TCAKS) Data”
